The text below walks through data of article PMC9409351, “Differential Ganglioside and Cholesterol Depletion by Various Cyclodextrin Derivatives and Their Effect on Synaptosomal Glutamate Release” (International Journal of Molecular Sciences, 2022).

Usually IC50 stands for the concentration that gives 50% inhibition.

For series [1], the system named is gangliosides (GM1, GD1a, GD1b, GT1b, GQ1b) of rat cerebral synaptosomes. The series can be described thus: Ganglioside depletion from synaptosomes, remaining content by capillary electrophoresis. It counts as cell-based. To be noted: for IC50: rat cerebral synaptosomes, 40 min exposure. The method, then:
Adult male Wistar rats purchased from Toxi-Coop Ltd. (Budapest, Hungary) were used in the experiments. Cerebral synaptosomes were prepared according to Modi and co-workers with the following modifications. Animals were decapitated and the brain was removed rapidly. Isotonic sucrose buffer (0.32 M sucrose, 4 mM HEPES-NaOH, pH 7.4) was used to homogenize the cerebrum with a Potter S Homogenizer (B. Braun, Melsungen, Germany) with 15 strokes at 1000 rpm. The homogenate was centrifuged (1500× g, 10 min, 4 °C) and the pellet was resuspended in sucrose buffer and centrifuged with the same parameters again. The two supernatants were combined and centrifuged (20,000× g, 10 min, 4 °C) to pellet the crude synaptosomes. The resulting supernatant was discarded and the pellet was washed again with an equal volume of sucrose buffer and then pelleted by centrifugation (20,000× g, 10 min, 4 °C). Synaptosomes were stored frozen using cryopreservation buffer and the slow freezing method to preserve their physiological state and integrity. Briefly, synaptosome pellets were resuspended in isotonic sucrose buffer containing 10% DMSO (v/v) and 10% FBS (v/v). To slow down the freezing process at −80 °C, synaptosomes were placed in a 3 cm thick-walled polystyrene box with a lid. Synaptosomes were stored at −80 °C until use. Immediately prior to the experiments, synaptosomes were rapidly thawed in a 37 °C water bath and pelleted by centrifugation (20,000× g, 10 min, 4 °C) to remove the cryopreservation buffer. The pellet was resuspended in isotonic HEPES-glucose buffer (10 mM HEPES-NaOH, 130 mM NaCl, 5.4 mM KCl, 1.3 mM CaCl2, 0.9 mM MgCl2, 5.5 mM glucose, pH 7.4) and aliquoted according to the experimental design.
For all types of experiments, except for the glutamate release measurements, vehicle-treated (control) and CD-treated synaptosomes were incubated in 500 μL HEPES-glucose buffer with or without CDs, respectively, for 40 min at 37 °C. […] After incubation, the synaptosomes were centrifuged (20,000× g, 5 min, 4 °C) and used immediately for further analysis. A slightly different incubation method used in the glutamate release measurements is described in the corresponding section. Across all types of experiments, osmolarities of the CD solutions were adjusted and they were between 290 and 310 mOsm. At least three parallel measurements were carried out.
The major neuronal ganglioside (GM1, GD1a, GD1b, GT1b, GQ1b) content of the rat cerebral synaptosome samples were measured by our previously published validated method. Briefly, after the CD treatments, gangliosides were extracted from 10 mg synaptosomes by liquid–liquid extraction. Ganglioside extracts were evaporated to dryness under a gentle stream of nitrogen (Zymark TurboVap LV, Hopkinton, MA, USA) in a 37 °C water bath. The dry ganglioside extract yielded from 10 mg synaptosomes was resuspended in 60 µL water, and centrifuged (20,000× g, 5 min, 4 °C) to remove the precipitate and the supernatant was analyzed by CE.
Ganglioside analysis was performed on a P/ACE MDQ capillary electrophoresis system (Beckman Coulter Inc., Brea, CA, USA) with UV detection at 200 nm. Uncoated fused silica capillaries with 75 µm internal diameter, […], respectively (Agilent Technologies, Santa Clara, CA, USA), were used. Separation was achieved by applying +25 kV voltage in a separation buffer containing 20 mM RAMEA and 100 mM sodium borate at pH 10.0. Ganglioside depletion in the CD-treated synaptosomes was calculated as the percentage of the ganglioside content of the vehicle-treated synaptosomes.
Data were analyzed by GraphPad Prism 8 (GraphPad Software, La Jolla, CA, USA). Concentration–response curves were constructed by the nonlinear regression method. One-way ANOVA followed by Bonferroni’s post hoc test was used for the data analysis in the case of the glutamate release experiments. […]

For series [2], the system named is rat cerebral synaptosomes. The series can be described thus: Membrane integrity by LDH release assay. Type of series: cell-based. To be noted: for IC50: 40 min exposure, LDH release as percentage of total LDH (Triton X-100 lysis); for Maximal effect (plateau) of LDH release: percentage of total LDH content. The method, then: Adult male Wistar rats purchased from Toxi-Coop Ltd. (Budapest, Hungary) were used in the experiments. Cerebral synaptosomes were prepared according to Modi and co-workers with the following modifications. Animals were decapitated and the brain was removed rapidly. Isotonic sucrose buffer (0.32 M sucrose, 4 mM HEPES-NaOH, pH 7.4) was used to homogenize the cerebrum with a Potter S Homogenizer (B. Braun, Melsungen, Germany) with 15 strokes at 1000 rpm. The homogenate was centrifuged (1500× g, 10 min, 4 °C) and the pellet was resuspended in sucrose buffer and centrifuged with the same parameters again. The two supernatants were combined and centrifuged (20,000× g, 10 min, 4 °C) to pellet the crude synaptosomes. […] Synaptosomes were stored frozen using cryopreservation buffer and the slow freezing method to preserve their physiological state and integrity. Briefly, synaptosome pellets were resuspended in isotonic sucrose buffer containing 10% DMSO (v/v) and 10% FBS (v/v). To slow down the freezing process at −80 °C, synaptosomes were placed in a 3 cm thick-walled polystyrene box with a lid. Synaptosomes were stored at −80 °C until use. Immediately prior to the experiments, synaptosomes were rapidly thawed in a 37 °C water bath and pelleted by centrifugation (20,000× g, 10 min, 4 °C) to remove the cryopreservation buffer. […] For all types of experiments, except for the glutamate release measurements, vehicle-treated (control) and CD-treated synaptosomes were incubated in 500 μL HEPES-glucose buffer with or without CDs, respectively, for 40 min at 37 °C. […] After incubation, the synaptosomes were centrifuged (20,000× g, 5 min, 4 °C) and used immediately for further analysis. A slightly different incubation method used in the glutamate release measurements is described in the corresponding section. Across all types of experiments, osmolarities of the CD solutions were adjusted and they were between 290 and 310 mOsm. At least three parallel measurements were carried out. The membrane integrity of the synaptosomes was measured by the CytoTox-ONE Homogeneous Membrane Integrity Assay (Promega, Madison, WI, USA) with minor modifications. The assay measures the release of the lactate dehydrogenase (LDH) enzyme from synaptosomes with damaged membranes. […] Both the supernatant and lysis samples were diluted 10-fold. The LDH activity was then assessed according to the manufacturer’s instructions and the fluorescence was measured by a Varioskan LUX multimode microplate reader (Thermo Fisher Scientific) at 530/590 nm.
In general terms: LDH in the medium is a marker of cell lysis.

Setting [3] is: total = sum of individual gangliosides, read-out: Total ganglioside depletion IC50.

Read-outs that look alike come from different tables or passages of the source. Some results are limits rather than exact numbers.

`COC[C@H]1O[C@@H]2O[C@H]3[C@H](O)[C@@H](OC)[C@@H](O[C@H]4[C@H](O)[C@@H](OC)[C@@H](O[C@H]5[C@H](O)[C@@H](OC)[C@@H](O[C@H]6[C@H](O)[C@@H](OC)[C@@H](O[C@H]7[C@H](O)[C@@H](OC)[C@@H](O[C@H]8[C@H](O)[C@@H](OC)[C@@H](O[C@H]1[C@H](O)[C@H]2OC)O[C@@H]8COC)O[C@@H]7COC)O[C@@H]6COC)O[C@@H]5COC)O[C@@H]4COC)O[C@@H]3COC` [DIMEB, heptakis(2,6-di-O-methyl)-beta-cyclodextrin]: the “Ganglioside extraction at 10 mM” value in series [1] (10 mM) was “approximately 50%”. Moreover, the “Ganglioside extraction at 30 mM” value in series [1] (30 mM) is on record as “Nearly total extraction”. For the same molecule, the IC50 amounted to 9.7 mM in series [1] (read-out: GD1a depletion IC50); 14.5 mM in series [1] (read-out: GD1b depletion IC50); 15 mM in series [1] (read-out: GM1 depletion IC50); 11.4 mM in series [1] (read-out: GQ1b depletion IC50); 8.7 mM in series [1] (read-out: GT1b depletion IC50); 10.5 mM in series [1] (setting [3]). Moreover, the IC50 in series [2] stood at 18.3 mM. The “Maximal effect (plateau) of LDH release” value in series [2] is recorded as “about 60%”.

As to `CC(O)COC[C@H]1O[C@@H]2O[C@H]3[C@H](O)[C@@H](O)[C@@H](O[C@H]4[C@H](O)[C@@H](O)[C@@H](O[C@H]5[C@H](O)[C@@H](O)[C@@H](O[C@H]6[C@H](O)[C@@H](O)[C@@H](O[C@H]7[C@H](O)[C@@H](O)[C@@H](O[C@H]8[C@H](O)[C@@H](O)[C@@H](O[C@H]1[C@H](O)[C@H]2O)O[C@@H]8COCC(C)O)O[C@@H]7COCC(C)O)O[C@@H]6COCC(C)O)O[C@@H]5COCC(C)O)O[C@@H]4COCC(C)O)O[C@@H]3COCC(C)O` (stereo partly drawn) [HPBCD, (2-hydroxypropyl)-beta-cyclodextrin], the IC50 in series [1] (40 min, read-out: GD1a depletion IC50) was 83.7 mM; in series [1] (40 min, read-out: GD1b depletion IC50), 86.6 mM; in series [1] (40 min, read-out: GM1 depletion IC50), 80.8 mM; in series [1] (40 min, read-out: GQ1b depletion IC50), 85.1 mM; in series [1] (40 min, read-out: GT1b depletion IC50), 80.1 mM; in series [1] (40 min, total = sum of individual gangliosides, read-out: Total ganglioside depletion IC50), 83.3 mM. The molecule also displayed an IC50 in series [2] (Rattus norvegicus, 40 min) of 31 mM. Besides, the “Ganglioside loss at 50% cholesterol depleting concentration” value in series [1] (at 50% cholesterol depleting concentration) was ~ 5%. In addition, the “Maximal effect (plateau) of LDH release” value in series [2] is on record as 43%.

Turning to “(2-hydroxypropyl)-alpha-cyclodextrin [HPACD]”, in series [1] (100 mM), the “Ganglioside extraction at highest examined concentration” value was ~ 60%. Besides, the IC50 in series [1] (read-out: GD1a depletion IC50) was 72.9 mM; in series [1] (read-out: GD1b depletion IC50), 90.6 mM; in series [1] (read-out: GM1 depletion IC50) it was 86.7 mM; in series [1] (read-out: GQ1b depletion IC50), 61.2 mM; in series [1] (setting [3]) it was 85.1 mM; in series [2], above 100 mM.

Consider “randomly methylated alpha-cyclodextrin [RAMEA]”, for which the IC50 in series [1] (read-out: GD1a depletion IC50) turned out to be 25.1 mM; in series [1] (read-out: GD1b depletion IC50) it was 26.4 mM; in series [1] (read-out: GM1 depletion IC50), 29.1 mM; in series [1] (read-out: GQ1b depletion IC50), 30.3 mM; in series [1] (read-out: GT1b depletion IC50), 24.2 mM; in series [1] (setting [3]), 26 mM. Also, the IC50 in series [2] is above 60 mM. Besides, the “Concentration with influence on membrane integrity” value in series [2] (LDH release, highest tested concentration) stood at 100000 µM.
